Test results from US20260315609A1, “MIXED VASOPRESSIN RECEPTOR AGONIST-ANTAGONIST FOR TREATING END-STAGE LIVER DISEASE AND COMPLICATIONS ASSOCIATED THEREOF” (FERRING B.V., priority 2022, published 2026).
Starred links: 1 amine or outer side, 2 acyl side, 3 side chain; linkers in the order of their positions; H or OH if unused. Positions of bridges follow the written chain, without caps; N, C: chain ends. Non-standard residues stand in square brackets, D forms with d. Residues, ends and D or L forms follow the SMILES beside them. Chains are numbered I, II in the order given. *: point of attachment. isoGln = NC(=O)[C@H](CCC(=O)[*:2])N[*:1]; εLys = N[C@@H](CCCCN[*:1])C(=O)[*:2]; Dab = NCC[C@H](N)C(=O)O; PhAc = O=C(Cc1ccccc1)*

Assays:
[1] = test system: CCl4-induced rat model of cirrhosis and ascites; assay: CCl4-induced cirrhosis and ascites rats, cohort 2 (single IV bolus), renal excretory function; type: in vivo; conditions: 100 μg/kg IV
Description: Animals: 90 male Wistar rats (Charles River Laboratories, Espana S.A) weighing 200-220 grams at the time of receipt were subjected to a cirrhosis induction program; high dose CCl4 was administered by inhalation twice weekly (Monday and Friday) and phenobarbital (0.3 g/L) was added to drinking water. In some instances, liver damage in this model is caused by hepatotoxic CCl4 metabolites produced in the liver. In some instances, phenobarbital induction of the microsomal enzyme oxidizing system exaggerates the intensity of the hepatic necrosis. The data was collected from the treatment of 44 cirrhotic rats with ascites. Animals were allowed free access to food and water throughout the study.
The study consisted of 3 treatment cohorts, as detailed in Table 10. Animals developing and maintaining ascites for 2 weeks were randomly assigned to treatment groups. Ringer Braun saline solution was used as vehicle. IV bolus were administered via femoral veins.
Cohort 2: Animals were anesthetized and the left femoral artery and vein catheterized. Bladders were exposed by suprapubic incision and catheterized for urine collection. A priming dose of PAH (4 mg/animal) was administered via the jugular vein followed by a constant infusion (2 mL/hr) of Ringer solution containing 4 mg/mL PAH. After 30 minutes of infusion, a baseline 30 minute urine collection was obtained for urine volume, urine sodium content, urine creatinine content, and PAH measurements. In the middle of the 30 minute urine collection, a blood sample (0.8 mL) was obtained via the femoral artery catheter for PAH and creatinine measurements. […] Five 30 minute urine collections were performed over 150 minutes, with blood samples collected in the middle of each 30 minute urine collection. Following blood sampling, packed cells were reconstituted with Ringer solution and reinjected over a period of 3 minutes.

[2] = test system: methionine/choline-deficient (MCD) diet rats; assay: ΔPP in methionine/choline-deficient (MCD) diet rats; type: in vivo, rat; conditions: for Δ PP (mean): SC, MCD diet rats
hV1b receptor = target: T1, hV1b receptor (Homo sapiens, UniProt P47901); assay: Luciferase reporter gene assay, human V1b; conditions: read-out: % MPE
T1 sequence (P47901 1-424): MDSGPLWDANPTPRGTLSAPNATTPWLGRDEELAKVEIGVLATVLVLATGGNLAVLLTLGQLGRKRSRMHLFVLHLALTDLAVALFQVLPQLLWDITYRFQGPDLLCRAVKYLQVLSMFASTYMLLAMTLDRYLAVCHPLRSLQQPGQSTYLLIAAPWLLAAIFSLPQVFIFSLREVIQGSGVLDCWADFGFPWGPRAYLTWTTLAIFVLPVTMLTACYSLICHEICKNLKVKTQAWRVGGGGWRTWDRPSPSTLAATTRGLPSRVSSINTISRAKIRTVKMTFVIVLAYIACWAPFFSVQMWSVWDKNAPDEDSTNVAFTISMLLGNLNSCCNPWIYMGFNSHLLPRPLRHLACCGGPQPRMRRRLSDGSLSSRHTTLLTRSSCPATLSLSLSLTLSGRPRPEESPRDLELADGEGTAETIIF
Description: Cell Lines. Studies were conducted with cell lines expressing rat (r) or human (h) Via, V1b, V2, or OT receptors. For the experiments with human receptors, human embryonic kidney (HEK)-flp-in cells stably expressing the lacZ-Zeocin™ fusion gene were used for expression of hV1a and hV1b. These cells were designed for use with the Flp-In™ expression vector containing the gene of interest (here hV1a or hV1b) and the Flp recombinase expression plasmid, pOG44. For hV2 and hOTR, HEK-293 cells transiently expressing hV2 were used.
Cell Maintenance. […]
Functional Cell-Based Assays. To detect activity generated by binding of the test compounds to endogenous rV1a receptors or the stably expressed hV1a receptors, Fluorometric Imaging Plate Reader (FL1PR) calcium assays were performed. Briefly, real-time fluorescence of an intracellular calcium-sensitive dye was measured immediately upon addition of the test compound at various concentrations. […] Expression of the luciferase gene was determined after 5-h incubation with various concentrations of test compound. […] For V1a receptor response, area under the curve of the real-time calcium traces, expressed as relative fluorescence units, was determined. […]

Compound: CC[C@H](C)[C@@H]1NC(=O)[C@H](Cc2ccccc2)NC(=O)[C@@H](N)CSSC[C@@H](C(=O)N2CCC[C@H]2C(=O)N[C@@H](CCNC(=O)[C@@H](N)CCCCNC(=O)[C@H](CCCCNC(C)=O)NC(=O)CC[C@H](NC(=O)[C@H](CCCNC(=N)N)NC(=O)[C@@H]2CCCN2C(=O)[C@H](C)NC(=O)[C@H](CC(N)=O)NC(=O)[C@H](CCC(N)=O)NC(=O)[C@H](Cc2ccccc2)NC(=O)[C@@H](Cc2ccc(OC)cc2)NC(=O)Cc2ccccc2)C(N)=O)C(=O)NCC(N)=O)NC(=O)[C@H](CC(N)=O)NC(=O)[C@H](CCC(N)=O)NC1=O [Compound 1, Glycinamide, L-cysteinyl-L-phenylalanyl-L-isoleucyl-L-glutaminyl-L-asparaginyl-L-cysteinyl-L-prolyl-N4-(phenylacetyl-O-methyl-D-tyrosyl-L-phenylalanyl-L-glutaminyl-L-asparaginyl-L-alanyl-L-prolyl-L-arginyl-L-isoglutamyl-N5-acetyl-L-lysyl-L-ε-lysyl)-L-2,4-diaminobutyryl-, cyclic (1→6)-disulfide] (I: H-CFIQNCP[Dab]G-NH2 / II: PhAc-[dY](Me)FQNAPR[isoGln]K(Ac)[εLys]; disulfide I:1-I:6; amide I:8-II:C)
- Sodium Excretion ([1]; 0 min): 0.4 μEq/min
- Urine Volume ([1]; 0 min): 8.4 µL/min
- Sodium Excretion ([1]; 30 min): 1.1 μEq/min
- Urine Volume ([1]; 30 min): 16.4 µL/min
- Sodium Excretion ([1]; 60 min): 4.1 μEq/min
- Urine Volume ([1]; 60 min): 26.5 µL/min
- Sodium Excretion ([1]; 90 min): 5.3 μEq/min
- Urine Volume ([1]; 90 min): 26.2 µL/min
- Sodium Excretion ([1]; 120 min): 7.0 μEq/min
- Urine Volume ([1]; 120 min): 32.3 µL/min
- Sodium Excretion ([1]; 150 min): 7.2 μEq/min
- Urine Volume ([1]; 150 min): 32.7 µL/min
- Δ PP (mean) ([2]; 25 μg/kg, 0 min): 0.0 mmHg
- Δ PP (mean) ([2]; 25 μg/kg, 1 min): −0.3 mmHg
- Δ PP (mean) ([2]; 25 μg/kg, 2 min): −0.8 mmHg
- Δ PP (mean) ([2]; 25 μg/kg, 3 min): −1.3 mmHg
- Δ PP (mean) ([2]; 25 μg/kg, 5 min): −1.8 mmHg
- Δ PP (mean) ([2]; 25 μg/kg, 7 min): −1.9 mmHg
- Δ PP (mean) ([2]; 25 μg/kg, 10 min): −2.1 mmHg
- Δ PP (mean) ([2]; 25 μg/kg, 15 min): −2.2 mmHg
- Δ PP (mean) ([2]; 25 μg/kg, 20 min): −2.3 mmHg
- Δ PP (mean) ([2]; 25 μg/kg, 30 min): −2.3 mmHg
- Δ PP (mean) ([2]; 25 μg/kg, 60 min): −2.2 mmHg
- Δ PP (mean) ([2]; 25 μg/kg, 90 min): −1.8 mmHg
- Δ PP (mean) ([2]; 100 μg/kg, 0 min): 0.0 mmHg
- Δ PP (mean) ([2]; 100 μg/kg, 1 min): −0.5 mmHg
- Δ PP (mean) ([2]; 100 μg/kg, 2 min): −1.2 mmHg
- Δ PP (mean) ([2]; 100 μg/kg, 3 min): −1.6 mmHg
- Δ PP (mean) ([2]; 100 μg/kg, 5 min): −2.1 mmHg
- Δ PP (mean) ([2]; 100 μg/kg, 7 min): −2.5 mmHg
- Δ PP (mean) ([2]; 100 μg/kg, 10 min): −2.5 mmHg
- Δ PP (mean) ([2]; 100 μg/kg, 15 min): −2.4 mmHg
- Δ PP (mean) ([2]; 100 μg/kg, 20 min): −2.3 mmHg
- Δ PP (mean) ([2]; 100 μg/kg, 30 min): −2.2 mmHg
- Δ PP (mean) ([2]; 100 μg/kg, 60 min): −2.0 mmHg
- Δ PP (mean) ([2]; 100 μg/kg, 90 min): −1.7 mmHg
- Δ PP (mean) ([2]; 500 μg/kg, 0 min): 0.0 mmHg
- Δ PP (mean) ([2]; 500 μg/kg, 1 min): −1.2 mmHg
- Δ PP (mean) ([2]; 500 μg/kg, 2 min): −1.9 mmHg
- Δ PP (mean) ([2]; 500 μg/kg, 3 min): −2.5 mmHg
- Δ PP (mean) ([2]; 500 μg/kg, 5 min): −2.9 mmHg
- Δ PP (mean) ([2]; 500 μg/kg, 7 min): −3.3 mmHg
- Δ PP (mean) ([2]; 500 μg/kg, 10 min): −2.9 mmHg
- Δ PP (mean) ([2]; 500 μg/kg, 15 min): −3.5 mmHg
- Δ PP (mean) ([2]; 500 μg/kg, 20 min): −3.8 mmHg
- Δ PP (mean) ([2]; 500 μg/kg, 30 min): −3.9 mmHg
- Δ PP (mean) ([2]; 500 μg/kg, 60 min): −3.4 mmHg
- Δ PP (mean) ([2]; 500 μg/kg, 90 min): −3.7 mmHg
- maximum ΔPP ([2]; SC 25 jag/kg (so in the source)): −2.3±0.2 mmHg
- maximum ΔPP ([2]; SC 100 jag/kg (so in the source)): −2.5±0.3 mmHg
- maximum ΔPP ([2]; SC 500 jag/kg (so in the source)): −3.9±0.8 mmHg
- Emax (hV1b receptor): 72%
